Data from the kinase profiling compilation of Christmann-Franck et al. (2016).

Key:
Assay in all cases: radiometric filter-binding kinase assay
[1] = tested on: AKT1 (human), P31749 [S473D]
BTK (human) = BTK (human) (UniProt Q06187)
CSNK2A1 (human) = CSNK2A1 (human) (UniProt P68400)
CaMK1 (human) = CaMK1 (human) (UniProt Q14012)
DAPK1 (human) = DAPK1 (human) (UniProt P53355)
DYRK1A (human) = DYRK1A (human) (UniProt Q13627)
DYRK2 (human) = DYRK2 (human) (UniProt Q92630)
DYRK3 (human) = DYRK3 (human) (UniProt O43781)
EEF2K (human) = EEF2K (human) (UniProt O00418)
EPHA2 (human) = EPHA2 (human) (UniProt P29317)
EPHB1 (human) = EPHB1 (human) (UniProt P54762)
EPHB3 (human) = EPHB3 (human) (UniProt P54753)
ERBB4 (human) = ERBB4 (human) (UniProt Q15303)
HIPK1 (human) = HIPK1 (human) (UniProt Q86Z02)
HIPK2 (human) = HIPK2 (human) (UniProt Q9H2X6)
HIPK3 (human) = HIPK3 (human) (UniProt Q9H422)
Chain of HIPK3 (human) (Q9H422 whole entry, looked up): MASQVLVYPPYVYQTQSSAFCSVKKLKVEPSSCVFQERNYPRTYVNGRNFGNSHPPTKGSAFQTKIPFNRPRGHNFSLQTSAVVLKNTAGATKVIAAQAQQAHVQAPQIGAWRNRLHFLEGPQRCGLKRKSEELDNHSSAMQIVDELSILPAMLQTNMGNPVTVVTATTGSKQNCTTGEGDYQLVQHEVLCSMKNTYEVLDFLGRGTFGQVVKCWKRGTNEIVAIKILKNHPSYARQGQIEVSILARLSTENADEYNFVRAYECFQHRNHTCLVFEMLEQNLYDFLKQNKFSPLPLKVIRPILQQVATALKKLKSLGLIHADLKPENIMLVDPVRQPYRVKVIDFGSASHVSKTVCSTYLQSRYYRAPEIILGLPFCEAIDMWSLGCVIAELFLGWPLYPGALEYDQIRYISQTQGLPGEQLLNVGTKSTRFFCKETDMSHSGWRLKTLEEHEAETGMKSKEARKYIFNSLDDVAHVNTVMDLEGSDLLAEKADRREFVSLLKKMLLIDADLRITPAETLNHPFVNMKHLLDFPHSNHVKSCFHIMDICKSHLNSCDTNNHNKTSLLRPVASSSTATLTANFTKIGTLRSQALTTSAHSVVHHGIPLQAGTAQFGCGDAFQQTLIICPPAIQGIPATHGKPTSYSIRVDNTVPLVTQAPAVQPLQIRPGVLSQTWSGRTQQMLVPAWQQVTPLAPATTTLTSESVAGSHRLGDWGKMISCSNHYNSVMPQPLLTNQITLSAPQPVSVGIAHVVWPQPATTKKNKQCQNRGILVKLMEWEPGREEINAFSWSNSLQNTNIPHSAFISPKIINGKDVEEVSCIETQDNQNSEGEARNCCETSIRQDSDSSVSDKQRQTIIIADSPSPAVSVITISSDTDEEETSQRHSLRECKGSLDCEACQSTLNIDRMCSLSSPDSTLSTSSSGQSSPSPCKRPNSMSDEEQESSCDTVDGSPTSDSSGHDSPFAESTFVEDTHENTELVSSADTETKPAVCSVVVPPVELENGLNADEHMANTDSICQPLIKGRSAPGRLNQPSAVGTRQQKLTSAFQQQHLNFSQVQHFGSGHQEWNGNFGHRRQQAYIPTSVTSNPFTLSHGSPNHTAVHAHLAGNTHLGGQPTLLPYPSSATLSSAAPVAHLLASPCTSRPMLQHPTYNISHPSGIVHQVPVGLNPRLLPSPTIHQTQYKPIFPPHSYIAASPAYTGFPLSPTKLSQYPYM

IKBKE (human) = IKBKE (human) (UniProt Q14164)
Chain of IKBKE (human) (Q14164 whole entry, looked up): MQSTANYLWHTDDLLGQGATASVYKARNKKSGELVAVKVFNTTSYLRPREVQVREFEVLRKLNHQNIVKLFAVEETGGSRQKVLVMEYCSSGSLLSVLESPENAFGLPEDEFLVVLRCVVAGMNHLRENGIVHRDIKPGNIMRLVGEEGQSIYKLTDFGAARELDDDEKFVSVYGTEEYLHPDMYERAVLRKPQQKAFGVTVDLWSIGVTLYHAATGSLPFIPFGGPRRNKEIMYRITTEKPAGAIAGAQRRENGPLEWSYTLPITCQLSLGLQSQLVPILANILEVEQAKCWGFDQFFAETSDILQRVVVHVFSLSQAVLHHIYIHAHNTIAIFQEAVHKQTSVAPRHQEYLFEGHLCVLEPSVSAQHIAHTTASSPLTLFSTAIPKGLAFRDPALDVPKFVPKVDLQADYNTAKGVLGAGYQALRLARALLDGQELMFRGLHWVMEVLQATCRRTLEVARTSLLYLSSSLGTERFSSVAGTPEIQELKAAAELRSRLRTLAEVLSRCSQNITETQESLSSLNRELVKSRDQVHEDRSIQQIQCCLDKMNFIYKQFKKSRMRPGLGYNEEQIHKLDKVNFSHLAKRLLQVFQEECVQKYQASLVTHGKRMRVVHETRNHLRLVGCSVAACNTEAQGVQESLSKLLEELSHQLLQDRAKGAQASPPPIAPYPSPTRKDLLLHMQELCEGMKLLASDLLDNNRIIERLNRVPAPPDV

LCK (mouse) = conditions: accession and sequence are those of the human protein
MAP2K6 (human) = MAP2K6 (human) (UniProt P52564)
MAP3K9 (human) = MAP3K9 (human) (UniProt P80192)
MAPK11 (human) = MAPK11 (human) (UniProt Q15759)
Chain of MAPK11 (human) (Q15759 whole entry, looked up): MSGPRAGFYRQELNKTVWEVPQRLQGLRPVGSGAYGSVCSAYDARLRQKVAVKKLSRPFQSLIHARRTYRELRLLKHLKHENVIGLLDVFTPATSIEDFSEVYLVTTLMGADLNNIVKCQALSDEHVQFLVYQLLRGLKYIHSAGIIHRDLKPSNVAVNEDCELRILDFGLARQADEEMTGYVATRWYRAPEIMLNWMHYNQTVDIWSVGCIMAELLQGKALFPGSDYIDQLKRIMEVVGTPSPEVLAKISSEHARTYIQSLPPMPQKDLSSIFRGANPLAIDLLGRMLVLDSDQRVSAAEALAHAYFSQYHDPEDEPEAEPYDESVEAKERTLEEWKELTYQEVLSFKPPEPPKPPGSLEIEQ

MAPK13 (human) = MAPK13 (human) (UniProt O15264)
MAPK14 (human) = MAPK14 (human) (UniProt Q16539)
MAPKAPK5 (human) = MAPKAPK5 (human) (UniProt Q8IW41)
MARK1 (human) = MARK1 (human) (UniProt Q9P0L2)
Chain of MARK1 (human) (Q9P0L2 whole entry, looked up): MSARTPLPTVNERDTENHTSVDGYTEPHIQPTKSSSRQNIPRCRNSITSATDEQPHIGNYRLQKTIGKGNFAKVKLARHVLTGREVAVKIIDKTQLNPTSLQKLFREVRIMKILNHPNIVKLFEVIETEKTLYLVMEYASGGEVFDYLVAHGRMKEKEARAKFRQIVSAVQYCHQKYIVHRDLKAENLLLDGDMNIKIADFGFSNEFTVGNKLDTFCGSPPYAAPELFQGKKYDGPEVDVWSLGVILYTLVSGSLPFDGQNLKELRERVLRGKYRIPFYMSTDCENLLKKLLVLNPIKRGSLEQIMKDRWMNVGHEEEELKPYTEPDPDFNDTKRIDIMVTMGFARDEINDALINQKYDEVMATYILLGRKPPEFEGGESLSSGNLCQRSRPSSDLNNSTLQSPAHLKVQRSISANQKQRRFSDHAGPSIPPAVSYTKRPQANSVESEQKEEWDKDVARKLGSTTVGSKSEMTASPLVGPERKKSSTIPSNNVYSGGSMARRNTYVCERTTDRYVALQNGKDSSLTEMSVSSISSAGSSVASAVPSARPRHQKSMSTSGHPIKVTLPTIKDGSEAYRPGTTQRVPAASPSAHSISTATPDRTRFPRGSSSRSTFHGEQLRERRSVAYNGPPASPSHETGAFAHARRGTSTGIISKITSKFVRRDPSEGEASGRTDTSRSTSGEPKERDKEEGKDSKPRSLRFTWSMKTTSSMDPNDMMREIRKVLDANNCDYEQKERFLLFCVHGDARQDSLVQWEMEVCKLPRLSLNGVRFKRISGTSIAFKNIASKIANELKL

MARK3 (human) = MARK3 (human) (UniProt P27448)
Chain of MARK3 (human) (P27448 whole entry, looked up): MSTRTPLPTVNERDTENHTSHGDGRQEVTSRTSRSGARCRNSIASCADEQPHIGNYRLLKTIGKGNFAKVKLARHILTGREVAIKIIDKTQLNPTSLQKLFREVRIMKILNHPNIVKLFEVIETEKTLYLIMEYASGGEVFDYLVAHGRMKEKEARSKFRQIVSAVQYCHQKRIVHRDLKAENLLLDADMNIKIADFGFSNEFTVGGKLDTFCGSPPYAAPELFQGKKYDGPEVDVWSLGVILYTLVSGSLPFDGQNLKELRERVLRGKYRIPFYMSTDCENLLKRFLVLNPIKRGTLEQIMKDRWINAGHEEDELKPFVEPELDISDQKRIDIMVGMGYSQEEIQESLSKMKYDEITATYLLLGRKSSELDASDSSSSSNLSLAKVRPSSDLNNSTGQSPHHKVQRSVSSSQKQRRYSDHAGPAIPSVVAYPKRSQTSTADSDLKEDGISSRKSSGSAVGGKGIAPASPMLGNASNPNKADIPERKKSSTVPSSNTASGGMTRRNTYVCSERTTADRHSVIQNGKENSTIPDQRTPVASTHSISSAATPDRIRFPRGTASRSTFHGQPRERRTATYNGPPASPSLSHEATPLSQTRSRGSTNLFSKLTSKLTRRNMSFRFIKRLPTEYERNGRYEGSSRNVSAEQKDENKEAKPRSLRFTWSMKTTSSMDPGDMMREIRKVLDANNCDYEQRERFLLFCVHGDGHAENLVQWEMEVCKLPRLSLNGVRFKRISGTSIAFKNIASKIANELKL

MST4 (human) = MST4 (human) (UniProt Q9P289)
Chain of MST4 (human) (Q9P289 whole entry, looked up): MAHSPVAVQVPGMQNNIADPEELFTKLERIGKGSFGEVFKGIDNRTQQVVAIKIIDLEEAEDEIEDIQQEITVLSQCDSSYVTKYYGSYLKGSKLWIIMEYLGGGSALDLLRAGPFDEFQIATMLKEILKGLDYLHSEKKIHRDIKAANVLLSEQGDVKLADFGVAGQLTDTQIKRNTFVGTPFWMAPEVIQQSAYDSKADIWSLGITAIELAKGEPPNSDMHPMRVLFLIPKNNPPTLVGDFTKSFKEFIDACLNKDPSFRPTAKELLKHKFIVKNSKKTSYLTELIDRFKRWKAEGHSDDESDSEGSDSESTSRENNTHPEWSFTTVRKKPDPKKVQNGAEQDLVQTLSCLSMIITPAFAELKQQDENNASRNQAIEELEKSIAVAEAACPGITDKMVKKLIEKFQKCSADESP

NEK6 (human) = NEK6 (human) (UniProt Q9HC98)
NUAK1 (human) = NUAK1 (human) (UniProt O60285)
PAK4 (human) = PAK4 (human) (UniProt O96013)
PAK6 (human) = PAK6 (human) (UniProt Q9NQU5)
PAK7 (human) = PAK7 (human) (UniProt Q9P286)
PRKCZ (human) = PRKCZ (human) (UniProt Q05513)
ROCK2 (rat) = conditions: accession and sequence are those of the human protein
RPS6KA5 KD1 KD2 (human) = RPS6KA5 KD1 KD2 (human) (UniProt O75582)
TAOK1 (human) = TAOK1 (human) (UniProt Q7L7X3)

Chain of BTK (human) (Q06187 whole entry, looked up): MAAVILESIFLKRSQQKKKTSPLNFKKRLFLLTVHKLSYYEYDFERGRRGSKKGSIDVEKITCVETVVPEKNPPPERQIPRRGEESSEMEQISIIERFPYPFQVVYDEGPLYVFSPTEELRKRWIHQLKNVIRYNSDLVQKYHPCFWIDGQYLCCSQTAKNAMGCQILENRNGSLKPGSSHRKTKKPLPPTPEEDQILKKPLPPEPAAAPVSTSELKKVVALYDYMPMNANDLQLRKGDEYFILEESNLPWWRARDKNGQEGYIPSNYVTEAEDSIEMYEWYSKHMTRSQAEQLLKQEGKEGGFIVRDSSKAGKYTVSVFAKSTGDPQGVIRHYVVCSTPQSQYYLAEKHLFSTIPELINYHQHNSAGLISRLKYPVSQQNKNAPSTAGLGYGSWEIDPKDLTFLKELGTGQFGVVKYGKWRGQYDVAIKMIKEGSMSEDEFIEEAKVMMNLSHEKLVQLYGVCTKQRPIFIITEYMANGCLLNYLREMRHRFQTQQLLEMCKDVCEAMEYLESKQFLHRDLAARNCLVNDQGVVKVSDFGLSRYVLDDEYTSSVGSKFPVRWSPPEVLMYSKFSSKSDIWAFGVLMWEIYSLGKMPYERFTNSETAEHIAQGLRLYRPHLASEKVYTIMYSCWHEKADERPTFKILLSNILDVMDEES

Structure (SMILES): NC(=O)c1cc(-c2ccnc(NC3CCCCC3)c2)nc(N2CCNCC2)c1
- residual activity ([1]; compound 0.1 µM): 109%
- residual activity ([1]; compound 1.0 µM): 106%
- residual activity ([1]; compound 10.0 µM): 94%
- residual activity (BTK (human); compound 0.1 µM): 92%
- residual activity (BTK (human); compound 1.0 µM): 120%
- residual activity (BTK (human); compound 10.0 µM): 79%
- residual activity (CSNK2A1 (human); compound 0.1 µM): 107%
- residual activity (CSNK2A1 (human); compound 1.0 µM): 110%
- residual activity (CSNK2A1 (human); compound 10.0 µM): 65%
- residual activity (CaMK1 (human); compound 0.1 µM): 81%
- residual activity (CaMK1 (human); compound 1.0 µM): 20%
- residual activity (CaMK1 (human); compound 10.0 µM): 1%
- residual activity (DAPK1 (human); compound 0.1 µM): 102%
- residual activity (DAPK1 (human); compound 1.0 µM): 93%
- residual activity (DAPK1 (human); compound 10.0 µM): 40%
- residual activity (DYRK1A (human); compound 0.1 µM): 97%
- residual activity (DYRK1A (human); compound 1.0 µM): 63%
- residual activity (DYRK1A (human); compound 10.0 µM): 21%
- residual activity (DYRK2 (human); compound 0.1 µM): 74%
- residual activity (DYRK2 (human); compound 1.0 µM): 29%
- residual activity (DYRK2 (human); compound 10.0 µM): 10%
- residual activity (DYRK3 (human); compound 0.1 µM): 39%
- residual activity (DYRK3 (human); compound 1.0 µM): 14%
- residual activity (DYRK3 (human); compound 10.0 µM): 7%
- residual activity (EEF2K (human); compound 0.1 µM): 105%
- residual activity (EEF2K (human); compound 1.0 µM): 111%
- residual activity (EEF2K (human); compound 10.0 µM): 87%
- residual activity (EPHA2 (human); compound 0.1 µM): 78%
- residual activity (EPHA2 (human); compound 1.0 µM): 99%
- residual activity (EPHA2 (human); compound 10.0 µM): 82%
- residual activity (EPHB1 (human); compound 0.1 µM): 96%
- residual activity (EPHB1 (human); compound 1.0 µM): 111%
- residual activity (EPHB1 (human); compound 10.0 µM): 99%
- residual activity (EPHB3 (human); compound 0.1 µM): 105%
- residual activity (EPHB3 (human); compound 1.0 µM): 124%
- residual activity (EPHB3 (human); compound 10.0 µM): 94%
- residual activity (ERBB4 (human); compound 0.1 µM): 83%
- residual activity (ERBB4 (human); compound 10.0 µM): 73%
- residual activity (HIPK1 (human); compound 0.1 µM): 99%
- residual activity (HIPK1 (human); compound 1.0 µM): 99%
- residual activity (HIPK1 (human); compound 10.0 µM): 106%
- residual activity (HIPK2 (human); compound 0.1 µM): 89%
- residual activity (HIPK2 (human); compound 1.0 µM): 125%
- residual activity (HIPK2 (human); compound 10.0 µM): 87%
- residual activity (HIPK3 (human); compound 0.1 µM): 95%
- residual activity (HIPK3 (human); compound 1.0 µM): 92%
- residual activity (HIPK3 (human); compound 10.0 µM): 101%
- residual activity (IKBKE (human); compound 0.1 µM): 98%
- residual activity (IKBKE (human); compound 1.0 µM): 87%
- residual activity (IKBKE (human); compound 10.0 µM): 48%
- residual activity (LCK (mouse); compound 0.1 µM): 84%
- residual activity (LCK (mouse); compound 1.0 µM): 30%
- residual activity (LCK (mouse); compound 10.0 µM): 9%
- residual activity (MAP2K6 (human); compound 0.1 µM): 92%
- residual activity (MAP2K6 (human); compound 1.0 µM): 29%
- residual activity (MAP2K6 (human); compound 10.0 µM): 16%
- residual activity (MAP3K9 (human); compound 1.0 µM): 69%
- residual activity (MAP3K9 (human); compound 10.0 µM): 103%
- residual activity (MAPK11 (human); compound 0.1 µM): 99%
- residual activity (MAPK11 (human); compound 1.0 µM): 96%
- residual activity (MAPK11 (human); compound 10.0 µM): 62%
- residual activity (MAPK13 (human); compound 0.1 µM): 89%
- residual activity (MAPK13 (human); compound 1.0 µM): 93%
- residual activity (MAPK13 (human); compound 10.0 µM): 50%
- residual activity (MAPK14 (human); compound 0.1 µM): 104%
- residual activity (MAPK14 (human); compound 1.0 µM): 116%
- residual activity (MAPK14 (human); compound 10.0 µM): 103%
- residual activity (MAPKAPK5 (human); compound 0.1 µM): 109%
- residual activity (MAPKAPK5 (human); compound 1.0 µM): 97%
- residual activity (MAPKAPK5 (human); compound 10.0 µM): 65%
- residual activity (MARK1 (human); compound 0.1 µM): 51%
- residual activity (MARK1 (human); compound 1.0 µM): 94%
- residual activity (MARK1 (human); compound 10.0 µM): 76%
- residual activity (MARK3 (human); compound 0.1 µM): 92%
- residual activity (MARK3 (human); compound 1.0 µM): 40%
- residual activity (MARK3 (human); compound 10.0 µM): 15%
- residual activity (MST4 (human); compound 0.1 µM): 117%
- residual activity (MST4 (human); compound 1.0 µM): 107%
- residual activity (MST4 (human); compound 10.0 µM): 95%
- residual activity (NEK6 (human); compound 0.1 µM): 86%
- residual activity (NEK6 (human); compound 1.0 µM): 87%
- residual activity (NEK6 (human); compound 10.0 µM): 42%
- residual activity (NUAK1 (human); compound 1.0 µM): 17%
- residual activity (NUAK1 (human); compound 10.0 µM): 32%
- residual activity (PAK4 (human); compound 0.1 µM): 101%
- residual activity (PAK4 (human); compound 1.0 µM): 93%
- residual activity (PAK4 (human); compound 10.0 µM): 74%
- residual activity (PAK6 (human); compound 0.1 µM): 99%
- residual activity (PAK6 (human); compound 1.0 µM): 99%
- residual activity (PAK6 (human); compound 10.0 µM): 81%
- residual activity (PAK7 (human); compound 0.1 µM): 97%
- residual activity (PAK7 (human); compound 1.0 µM): 90%
- residual activity (PAK7 (human); compound 10.0 µM): 71%
- residual activity (PRKCZ (human); compound 0.1 µM): 88%
- residual activity (PRKCZ (human); compound 1.0 µM): 109%
- residual activity (PRKCZ (human); compound 10.0 µM): 84%
- residual activity (ROCK2 (rat); compound 0.1 µM): 99%
- residual activity (ROCK2 (rat); compound 10.0 µM): 51%
- residual activity (RPS6KA5 KD1 KD2 (human); compound 0.1 µM): 97%
- residual activity (RPS6KA5 KD1 KD2 (human); compound 1.0 µM): 109%
- residual activity (RPS6KA5 KD1 KD2 (human); compound 10.0 µM): 79%
- residual activity (TAOK1 (human); compound 0.1 µM): 103%
- residual activity (TAOK1 (human); compound 10.0 µM): 53%
